SMILES strings stand for the structures.

Data on 2 molecules can be found in PMC12447391 (2025).

The test system of test [1] is R5MPT (DNA, aptamer) CGGGCGACGGGGATTTTTGGTGCACTATGTGGTTCGTTCGGGGTGGGCTGCGTTCTCCATTCTGGTTTTTTCCGATTACAGCC
The experiment in a line: CD. Particulars: PBS, 25 °C; 1 μM aptamer, 1 μM cortisol; peaks shift.

For test [2], the system named is Ref (DNA, aptamer) CGACCGGTCTGGGGACCCTGTCTGGGTGTGTGGGTAGTAGGTCGTTTTTTCCGATTACAGCC
The experiment in a line: ITC. The settings on record: PBS, 25 °C.

Test [3] relates to R5MPT (DNA, aptamer) CGGGCGACGGGGATTTTTGGTGCACTATGTGGTTCGTTCGGGGTGGGCTGCGTTCTCCATTCTGGTTTTTTCCGATTACAGCC
The experiment in a line: ITC. Particulars: PBS, 25 °C.

Test [4] relates to Ref in Apta-gel (DNA, aptamer) CGACCGGTCTGGGGACCCTGTCTGGGTGTGTGGGTAGTAGGTCGTTTTTTCCGATTACAGCC
The experiment in a line: nonfaradic EIS of Apta-gel. The settings on record: PBS; effective capacitance rises at 21 °C, falls at 35 °C.

Test [5] relates to R5MPT in Apta-gel (DNA, aptamer) CGGGCGACGGGGATTTTTGGTGCACTATGTGGTTCGTTCGGGGTGGGCTGCGTTCTCCATTCTGGTTTTTTCCGATTACAGCC
The experiment in a line: OECT flow-cell kinetics (koff/kon). The settings on record: PBS, 25 °C; apparent; kon 201.4 M^-1 s^-1, koff 0.0067 s^-1; immobilised aptamer.

The subject of test [6] is Ref in Apta-gel (DNA, aptamer) CGACCGGTCTGGGGACCCTGTCTGGGTGTGTGGGTAGTAGGTCGTTTTTTCCGATTACAGCC
The experiment in a line: OECT transient response, equilibrium titration. Particulars: PBS, 21 °C; apparent; immobilised aptamer.

In test [7] the test system is TESS.1_trimmed in Apta-gel (DNA, aptamer) ACGGGATGTCCGGGGTACGGTGGTTGCAGTTCGTTTTTTTCCGATTACAGCC
The experiment in a line: OECT transient response, equilibrium titration. Particulars: PBS, immobilised aptamer.

With `C[C@]12CCC(=O)C=C1CC[C@@H]1[C@@H]2[C@@H](O)C[C@@]2(C)[C@H]1CC[C@]2(O)C(=O)CO`, the binding result in test [1] and in test [4] was “yes” in each case. The KD in test [2] worked out at 3.75 µM; in test [3], 10.2 µM; in test [5], 33 µM; in test [6], 45.95 µM.
As to `C[C@]12CC[C@H]3[C@@H](CCC4=CC(=O)CC[C@@]43C)[C@@H]1CC[C@@H]2O`, in test [7], the “KD, apparent” value was found to be 0.303 µM.
